According to ChEMBL document CHEMBL1201862, “PubChem BioAssay data set” (2004):
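Five compound concentrations were applied to cells in 96-well plates for 48 hours; endpoints were derived by simple linear interpolation of the resulting dose-response curve. At the GI50, growth is halved.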 Active and inactive are the calls of the source. Rule as the data show it: active = GI50 up to about 1.1 µM and inactive = higher.

Key:
Assay in all cases: NCI tumour cell line growth inhibition, 48 h
A498 = tested on: A498
BT-549 = tested on: BT-549
COLO 205 = tested on: COLO 205
HCT-15 = tested on: HCT-15
IGROV-1 = tested on: IGROV-1
K562 = tested on: K562
LOX IMVI = tested on: LOX IMVI
MDA-N = tested on: MDA-N
NCI-H23 = tested on: NCI-H23
OVCAR-8 = tested on: OVCAR-8
RPMI-8226 = tested on: RPMI-8226
RXF 393 = tested on: RXF 393
SF-295 = tested on: SF-295
SK-MEL-28 = tested on: SK-MEL-28
SK-OV-3 = tested on: SK-OV-3
SR = tested on: SR
SW-620 = tested on: SW-620
TK-10 = tested on: TK-10
UACC-62 = tested on: UACC-62
UO-31 = tested on: UO-31

| SMILES | GI50 (A498) | GI50 (BT-549) | GI50 (COLO 205) | GI50 (HCT-15) | GI50 (IGROV-1) | GI50 (K562) | GI50 (LOX IMVI) | GI50 (MDA-N) | GI50 (NCI-H23) | GI50 (OVCAR-8) | GI50 (RPMI-8226) | GI50 (RXF 393) | GI50 (SF-295) | GI50 (SK-MEL-28) | GI50 (SK-OV-3) | GI50 (SR) | GI50 (SW-620) | GI50 (TK-10) | GI50 (UACC-62) | GI50 (UO-31) |
| --- | --- | --- | --- | --- | --- | --- | --- | --- | --- | --- | --- | --- | --- | --- | --- | --- | --- | --- | --- | --- |
| CC(=O)/C(=N\N=C(N)N)c1ccccc1 | > 100 µM (inactive) | > 100 µM (inactive) | 35.1 µM (inactive) | > 100 µM | > 100 µM (inactive) | > 100 µM (inactive) | > 100 µM (inactive) | > 100 µM (inactive) | > 100 µM (inactive) | > 100 µM (inactive) | > 100 µM (inactive) | > 100 µM (inactive) | > 100 µM (inactive) | > 100 µM (inactive) | > 100 µM (inactive) | > 100 µM (inactive) | > 100 µM (inactive) | > 100 µM (inactive) | > 100 µM (inactive) | > 100 µM (inactive) |
| Cn1c(-c2ccc[se]2)ccc1-c1ccc(C=O)[se]1 | 1.17 µM (inactive) | 17.1 µM (inactive) | 16.3 µM (inactive) | 8.15 µM | 0.122 µM (active) | 0.323 µM (active) | 8.99 µM (inactive) | 6.34 µM (inactive) | 12.4 µM (inactive) | 6.98 µM (inactive) | 1.03 µM (active) |  | 12.4 µM (inactive) | 42.1 µM (inactive) | 16.6 µM (inactive) | 7.45 µM (inactive) | 1.3 µM (inactive) | 0.124 µM (active) | 0.205 µM (active) | > 76.4 µM (inactive) |
| C[C@H](CCC(=O)O)[C@H]1CC[C@H]2[C@@H]3[C@H](O)C[C@@H]4C[C@H](O)CC[C@]4(C)[C@H]3C[C@H](O)[C@]12C | > 100 µM (inactive) | > 100 µM (inactive) | > 100 µM (inactive) | > 100 µM | > 100 µM (inactive) | > 100 µM (inactive) | > 100 µM (inactive) | > 100 µM (inactive) | > 100 µM (inactive) | > 100 µM (inactive) | > 100 µM (inactive) | > 100 µM (inactive) | > 100 µM (inactive) | > 100 µM (inactive) | > 100 µM (inactive) | > 100 µM (inactive) | > 100 µM (inactive) | > 100 µM (inactive) | > 100 µM (inactive) | > 100 µM (inactive) |
| O=C(NCCCc1cn[nH]c(=O)n1)c1cccc2nc3ccccc3nc12 | > 100 µM (inactive) | > 100 µM (inactive) | > 100 µM (inactive) | > 100 µM | > 100 µM (inactive) | > 100 µM (inactive) | > 100 µM (inactive) | > 100 µM (inactive) | > 100 µM (inactive) | 61.9 µM (inactive) | > 100 µM (inactive) | 41.5 µM (inactive) | 31.7 µM (inactive) | > 100 µM (inactive) | > 100 µM (inactive) | 40.6 µM (inactive) | > 100 µM (inactive) | 36.5 µM (inactive) | > 100 µM (inactive) |  |
| Cc1cn(C2CC(N)C(CN)O2)c(=O)[nH]c1=O (centres undefined) | > 100 µM (inactive) | > 100 µM (inactive) | > 100 µM (inactive) | > 100 µM | > 100 µM (inactive) | > 100 µM (inactive) |  | 35.6 µM (inactive) | > 100 µM (inactive) | > 100 µM (inactive) | > 100 µM (inactive) | > 100 µM (inactive) | > 100 µM (inactive) | > 100 µM (inactive) | > 100 µM (inactive) | > 100 µM (inactive) | > 100 µM (inactive) | > 100 µM (inactive) | > 100 µM (inactive) | > 100 µM (inactive) |
| CC1(C)CC(=O)C2=C(C1)c1c(ccc3ccccc13)NC2c1cn(Cc2ccc(Cl)cc2)c2ccccc12 (centres undefined) | 2.55 µM (inactive) | 95.9 µM (inactive) | > 100 µM (inactive) | > 100 µM | 59.2 µM (inactive) | 50.9 µM (inactive) | 38.7 µM (inactive) | > 100 µM (inactive) | 80.7 µM (inactive) | > 100 µM (inactive) | > 100 µM (inactive) |  | 31.2 µM (inactive) |  | > 100 µM (inactive) | 11.2 µM (inactive) | > 100 µM (inactive) | 27.7 µM (inactive) | > 100 µM (inactive) | > 100 µM (inactive) |
| CN1CC=C(c2c(N)nc(N)[nH]c2=O)CC1 | > 100 µM (inactive) | > 100 µM (inactive) | > 100 µM (inactive) | > 100 µM | > 100 µM (inactive) | > 100 µM (inactive) |  | > 100 µM (inactive) | > 100 µM (inactive) | > 100 µM (inactive) | > 100 µM (inactive) | > 100 µM (inactive) | > 100 µM (inactive) | > 100 µM (inactive) | > 100 µM (inactive) | > 100 µM (inactive) | > 100 µM (inactive) |  | > 100 µM (inactive) | > 100 µM (inactive) |
| Brc1ccc(C2(N3CCCCC3)CCCCC2)s1 | 66.7 µM (inactive) | 30.5 µM (inactive) |  |  | 22.2 µM (inactive) | 21.1 µM (inactive) | 11.7 µM (inactive) | 79.8 µM (inactive) | 37.3 µM (inactive) |  | 19.6 µM (inactive) | 14.3 µM (inactive) | 35.6 µM (inactive) |  | 45.2 µM (inactive) | 19.5 µM (inactive) | 31.8 µM (inactive) | 37.5 µM (inactive) | 35.5 µM (inactive) | 30.8 µM (inactive) |
| COC(=O)c1c(O)ccc2c1c1c(n2Cc2ccccc2Cl)C(=O)c2ccccc2C1=O | 16.5 µM (inactive) | 12.6 µM (inactive) | 4.13 µM (inactive) | 12.7 µM | 13.6 µM (inactive) | 14.3 µM (inactive) |  | 12.8 µM (inactive) | 13.2 µM (inactive) | 16 µM (inactive) | 5.98 µM (inactive) | 16.3 µM (inactive) | 14.6 µM (inactive) | 15.6 µM (inactive) | 12.9 µM (inactive) | 14.6 µM (inactive) |  | 16.1 µM (inactive) | 14.8 µM (inactive) | 10.9 µM (inactive) |
| CC1(C)C(C(=O)OC(C#N)c2cccc(OCC(=O)OCc3ccccc3)c2)C1(C)C (centres undefined) | > 100 µM (inactive) | > 100 µM (inactive) | > 100 µM (inactive) | > 100 µM | > 100 µM (inactive) | 2.36 µM (inactive) | 95.7 µM (inactive) | > 100 µM (inactive) | 37.4 µM (inactive) | 35.2 µM (inactive) |  | > 100 µM (inactive) | > 100 µM (inactive) | 63.2 µM (inactive) | > 100 µM (inactive) | 0.251 µM (active) | 70.3 µM (inactive) | > 100 µM (inactive) | > 100 µM (inactive) | > 100 µM (inactive) |
| c1csc(-c2cc(-c3ccsc3)c(-c3ccsc3)s2)c1 | > 100 µM (inactive) | > 100 µM (inactive) | 89.7 µM (inactive) | 24 µM | > 100 µM (inactive) | > 100 µM (inactive) |  | > 100 µM (inactive) | > 100 µM (inactive) | > 100 µM (inactive) |  | > 100 µM (inactive) | > 100 µM (inactive) | > 100 µM (inactive) | > 100 µM (inactive) | > 100 µM (inactive) | > 100 µM (inactive) | > 100 µM (inactive) | > 100 µM (inactive) | > 100 µM (inactive) |
| O=C(CN1CCCC1)Nc1ccc2c(c1)C1Oc3ccccc3CC1CO2 (centres undefined) | > 100 µM (inactive) | 19.4 µM (inactive) | 14 µM (inactive) | 18.6 µM | 36.6 µM (inactive) | 38.6 µM (inactive) | 21.4 µM (inactive) | 31.2 µM (inactive) | 38.5 µM (inactive) | 97.5 µM (inactive) | 25.1 µM (inactive) |  | 20.5 µM (inactive) |  | > 100 µM (inactive) | 33.3 µM (inactive) | 17.3 µM (inactive) | 49 µM (inactive) | 17 µM (inactive) | 22.1 µM (inactive) |
| CSc1nc(N)c(NC2OC(CO)C(O)C2O)c(=O)[nH]1 (centres undefined) | > 100 µM (inactive) | > 100 µM (inactive) | > 100 µM (inactive) | > 100 µM | > 100 µM (inactive) | > 100 µM (inactive) | > 100 µM (inactive) | > 100 µM (inactive) |  | > 100 µM (inactive) | > 100 µM (inactive) | > 100 µM (inactive) | > 100 µM (inactive) | > 100 µM (inactive) | > 100 µM (inactive) | > 100 µM (inactive) | > 100 µM (inactive) | > 100 µM (inactive) | > 100 µM (inactive) | > 100 µM (inactive) |
| CCCCON1C[C@@H](O)C(O)[C@@H](O)C1 (some centres undefined) | > 100 µM (inactive) | > 100 µM (inactive) | > 100 µM (inactive) | > 100 µM | > 100 µM (inactive) | > 100 µM (inactive) | > 100 µM (inactive) | > 100 µM (inactive) | > 100 µM (inactive) | > 100 µM (inactive) | > 100 µM (inactive) | > 100 µM (inactive) | > 100 µM (inactive) | > 100 µM (inactive) |  | > 100 µM (inactive) | > 100 µM (inactive) | > 100 µM (inactive) | > 100 µM (inactive) | > 100 µM (inactive) |
| C#CCOC(=O)[C@@H](C)c1ccc2cc(OC)ccc2c1 | > 100 µM (inactive) | 54.5 µM (inactive) | > 100 µM (inactive) | 28.4 µM | > 100 µM (inactive) | 44.8 µM (inactive) | 70.1 µM (inactive) | > 100 µM (inactive) | 63.5 µM (inactive) | > 100 µM (inactive) | 29.5 µM (inactive) | 86.5 µM (inactive) | > 100 µM (inactive) |  | > 100 µM (inactive) | 17.3 µM (inactive) | > 100 µM (inactive) | > 100 µM (inactive) | > 100 µM (inactive) | 94 µM (inactive) |
